Measured values from patent US20190351003A1, “METHODS FOR INHIBITING NONALCOHOLIC STEATOHEPATITIS, NONALCOHOLIC FATTY LIVER DISEASE, AND/OR DE NOVO LIPOGENESIS” (The Regents of the University of California, priority 2017, published 2019).

Experiments:
[1] = tested on: human caspases (including caspase-2); details: cited from earlier work
MUP-uPA mice = details: HFD-fed MUP-uPA mice; cited from earlier work
HFD-fed MUP-uPA mice = assay: Casp2 inhibitor treatment of HFD-fed MUP-uPA mice (NASH model); assay type: in vivo, mouse; details: for circulating TG / circulating cholesterol: serum
Experimental: FIGS. 6A-6G are pictorial and graphical diagrams showing that Casp2 inhibition ameliorates NASH. […] After 6 weeks of HFD feeding, MUP-uPA mice were treated with Ac-VDVAD (10 μg/g) for 6 weeks while kept on HFD. […] FFPE sections from livers of inhibitor or vehicle treated mice were evaluated for macrovesicular fat, ballooning hepatocytes, MDB and p62 aggregates, macrophages, collagen fibers and lipid droplets. Magnification bars: 100 μm. Images were quantitated as above and results are shown on the right as averages±SEM (Vehicle: n=6; Ac-VDVAD: n=5). […] Mean±SEM. […] Adipocyte size and density were determined as above. ATM (adipose tissue macrophages) were visualized by F4/80 staining and quantified as above.
Casp2^−/− mice were purchased from The Jackson Laboratories and crossed with either C57BL/6 or MUP-uPA mice (Sandgren et al., 1991; Weglarz et al., 2000) to generate Casp2^−/−/WT or Casp2^−/−/MUP-uPA mice, respectively. All mouse lines were either on a pure C57BL/6 genetic background or crossed into it for at least nine generations. Mice were fed with HFD (#S3282, Bio-serv) for a total of 12 weeks, starting at 8 weeks of age. Body weight increase and food consumption were monitored bi-weekly throughout the entire feeding period. Mice were starved for 3 hr before sacrifice and liver and adipose tissue were excised and weighed.
(§1) RNAs were extracted from liver or fat tissue of indicated mice or human biopsies using TRIZOL reagent according to manufacturer's instruction. cDNAs were synthesized from total RNAs using Super Script VILO cDNA Synthesis Kit (Thermo Fisher Scientific, MA) according to the supplier's instructions. The cDNAs were quantified by real-time PCR analysis using SYBR Green Master Mix (Bio-Rad, CA). Primer sequences that were used for human biopsies are as follows:
Liver and epidydimal fat were fixed in 4% paraformaldehyde for 48 hr and embedded in paraffin, sectioned, stained with hematoxylin and eosin (H&E) to evaluate gross morphology and ballooning degeneration and with Sirius Red to determine fibrosis. Prepared FFPE sections were subjected to incubation with antibodies specific to p62 and F4/80 to visualize formation of Mallory-Denk Bodies (MDB) and macrophage infiltration, respectively. For frozen-block preparation, liver tissue was embedded in Tissue-Tek OCT compound (Sakura Finetek), sectioned, and stained with Oil Red O to visualize TG accumulation. Stained areas were quantified using ImageJ software.
Liver lipids were extracted using chloroform/methanol (2:1 v/v) and plasma and liver TG and cholesterol were determined using Triglyceride Colorimetric Assay Kit (Cayman Chemical Company, MI) and Cholesterol Quantification Kit (Sigma-Aldrich, MO) according to manufacturer's instructions.
Morphological analysis of adipocytes was performed by using MRI adipocyte tools (Osman et al., 2013). Images were taken from FFPE epidydimal fat section by AXIO Imager A2 (Carl Zeiss, Germany) and subjected to MRI adipocyte software to obtain area of individual fat cell and number of adipocytes per HMF. Quantification and statistical significance were analyzed by Prism 7 software (GraphPad Prism, CA).
To examine whether Casp2 inhibition is of therapeutic value, Ac-VDVAD-CHO (C23H37N5O10), a cell permeable, Casp2 inhibitor (Talanian et al., 1997) was administrated to HFD-fed MUP-uPA mice. HFD feeding was initiated at eight weeks of age, and six weeks later the mice were given the Casp2 inhibitor on alternate days by intraperitoneal (i.p.) injection (FIG. 6A). After a 6-week treatment regimen, the mice were sacrificed and their liver and adipose tissue were examined. […] Fibrosis was also attenuated. qRT-PCR analysis confirmed that expression of inflammatory cytokines and markers as well as fibrosis-related genes was reduced in response to Casp2 inhibition (FIG. 6C). […]

Casp2 = assay: Tunicamycin (ER stress inducer) administration to NC-fed BL6 mice, liver Casp2 expression; assay type: in vivo, mouse; details: non-transgenic 3-month-old NC-fed BL6 mice; tunicamycin 1.25 mg/kg i.p.
Experimental: FIGS. 12A-12I are pictorial and graphical diagrams showing elevated Casp2 expression in ER-stressed mice and human NASH. FIG. 12A the results from immunoblot (IB) analysis of whole cell lysates (WCL) from 5-week-old WT and MUP-uPA livers (left) and WCL of livers from 3-month-old WT mice that were i.p. injected with dextrose or tunicamycin (1.25 mg/kg). Results are mean±SEM (dextrose: n=4; tunicamycin: n=5). P: precursor, C: cleaved. […] Results are mean±SEM (WT: n=5; MUP: n=9). […] Casp4 and Casp12 were examined in liver lysates of 5-week-old mice. […] Staining intensity was quantitated using ImageJ as described in FIG. 1.
as §1
ER stress in MUP-uPA liver peaks in 5- to 6-week-old mice and then declines due to reduced uPA expression in newly regenerated hepatocytes (Nakagawa et al., 2014; Sandgren et al., 1991). […]

[2] = biological target: T1, Flag-tagged SREBP2, Q12772
T1 chain: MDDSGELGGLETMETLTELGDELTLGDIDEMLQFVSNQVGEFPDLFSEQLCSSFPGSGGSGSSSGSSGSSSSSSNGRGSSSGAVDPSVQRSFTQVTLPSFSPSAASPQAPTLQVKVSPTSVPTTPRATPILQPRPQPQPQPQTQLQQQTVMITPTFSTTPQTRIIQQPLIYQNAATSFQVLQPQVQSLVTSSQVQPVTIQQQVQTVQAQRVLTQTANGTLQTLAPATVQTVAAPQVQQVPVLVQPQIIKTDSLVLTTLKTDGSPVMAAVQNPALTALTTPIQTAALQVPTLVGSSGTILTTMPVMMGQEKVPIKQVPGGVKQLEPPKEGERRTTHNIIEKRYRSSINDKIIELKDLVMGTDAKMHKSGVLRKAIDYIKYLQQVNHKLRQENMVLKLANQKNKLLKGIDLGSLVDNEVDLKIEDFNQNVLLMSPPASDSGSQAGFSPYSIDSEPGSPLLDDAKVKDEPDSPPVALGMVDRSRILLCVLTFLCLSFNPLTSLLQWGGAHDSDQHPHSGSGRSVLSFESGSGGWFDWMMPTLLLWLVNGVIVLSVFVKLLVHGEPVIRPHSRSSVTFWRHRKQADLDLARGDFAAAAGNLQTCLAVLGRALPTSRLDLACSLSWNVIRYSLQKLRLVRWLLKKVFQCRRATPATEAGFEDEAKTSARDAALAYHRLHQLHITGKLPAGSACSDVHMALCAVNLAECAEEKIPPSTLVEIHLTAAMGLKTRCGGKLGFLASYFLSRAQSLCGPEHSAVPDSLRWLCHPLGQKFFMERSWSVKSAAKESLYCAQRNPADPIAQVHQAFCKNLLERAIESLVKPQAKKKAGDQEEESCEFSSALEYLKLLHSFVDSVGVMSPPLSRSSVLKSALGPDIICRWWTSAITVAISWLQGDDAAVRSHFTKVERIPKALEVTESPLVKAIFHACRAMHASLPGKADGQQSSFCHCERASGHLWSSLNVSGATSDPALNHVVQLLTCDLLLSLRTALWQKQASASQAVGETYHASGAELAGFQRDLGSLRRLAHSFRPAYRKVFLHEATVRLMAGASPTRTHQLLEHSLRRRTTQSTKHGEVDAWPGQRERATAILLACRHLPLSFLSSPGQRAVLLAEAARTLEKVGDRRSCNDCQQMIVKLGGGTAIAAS

[3] = HFD-fed MUP-uPA mice, 10 μg/g i.p. every other day for 6 weeks
[4] = HFD-fed MUP-uPA mice, 10 μg/g i.p. every other day for 6 weeks, liver
[5] = HFD-fed MUP-uPA mice, 10 μg/g i.p. on alternate days for 6 weeks
[6] = HFD-fed MUP-uPA mice, 10 μg/g i.p. on alternate days for 6 weeks, liver sections
[7] = liver WCL, IB, HFD-fed MUP-uPA mice, 10 μg/g i.p. on alternate days for 6 weeks

C[C@H](NC(=O)C(=O)Nc1ccccc1C(C)(C)C)C(=O)N[C@@H](CC(=O)O)C(=O)COc1c(F)c(F)cc(F)c1F [IDN-6556]
activity against human caspases ([1]; broad-spectrum (pan-caspase) inhibitor): activity against all tested human caspases
inhibition of other classes of proteases or other enzymes or receptors other than caspases ([1]; selectivity): no inhibition

O=C(O)CCCc1ccccc1 [PBA, phenyl butyric acid]
NASH development (MUP-uPA mice): effectively inhibited
activation of sterol response element binding proteins (SREBP) (MUP-uPA mice): attenuate
lipid accumulation (MUP-uPA mice): inhibit

C[C@H](CCC(=O)NCCS(=O)(=O)O)[C@H]1CC[C@H]2[C@@H]3[C@@H](O)C[C@@H]4C[C@H](O)CC[C@]4(C)[C@H]3CC[C@]12C [TUDCA, tauroursodeoxycholic acid]
NASH development (MUP-uPA mice): effectively inhibited
activation of sterol response element binding proteins (SREBP) (MUP-uPA mice): attenuate
lipid accumulation (MUP-uPA mice): inhibit

Ac-VDVAD-aldehyde
ATM (adipose tissue macrophage) accumulation / infiltration into epidydimal fat (HFD-fed MUP-uPA mice; [3]): blocked
UCP1 expression in BAT (HFD-fed MUP-uPA mice; [3]): enhanced
liver TG (HFD-fed MUP-uPA mice; [3]): decreased
liver fibrosis (HFD-fed MUP-uPA mice; [3]): attenuated
MDB (Mallory-Denk body) formation (HFD-fed MUP-uPA mice; [4]): prevented
circulating TG (HFD-fed MUP-uPA mice; [3]): decreased
circulating cholesterol (HFD-fed MUP-uPA mice; [3]): decreased
blood insulin (HFD-fed MUP-uPA mice; [5]): had no effect
body weight (HFD-fed MUP-uPA mice; [5]): had no effect
hepatic steatosis (HFD-fed MUP-uPA mice; HFD-fed MUP-uPA mice, 10 μg/g i.p. on alternate days for 6 weeks after 6 weeks of HFD, liver sections): prevented
macrophage recruitment (HFD-fed MUP-uPA mice; HFD-fed MUP-uPA mice, 10 μg/g i.p. on alternate days for 6 weeks, liver): decreasing
ballooning degeneration (HFD-fed MUP-uPA mice; [6]): prevented
p62 accumulation (HFD-fed MUP-uPA mice; [6]): prevented
SREBP1/2 activation in liver (HFD-fed MUP-uPA mice; IB of liver WCL and NE, HFD-fed MUP-uPA mice, 10 μg/g i.p. on alternate days for 6 weeks): attenuated
energy expenditure, as suggested by AMPK activation in peripheral tissues, including liver and skeletal muscle (HFD-fed MUP-uPA mice; IB of liver and muscle extracts, HFD-fed MUP-uPA mice, 10 μg/g i.p. on alternate days for 6 weeks): increased
established NASH (HFD-fed MUP-uPA mice; MUP-uPA mice, 10 μg/g for 6 weeks after 6 weeks of HFD feeding, kept on HFD): ameliorates
adipocyte enlargement (HFD-fed MUP-uPA mice; epidydimal fat, HFD-fed MUP-uPA mice, 10 μg/g i.p. on alternate days for 6 weeks): blocked
INSIG1 or 2 expression (HFD-fed MUP-uPA mice; [7]): had no effect
IRS2 expression (HFD-fed MUP-uPA mice; [7]): had no effect
StARD4 expression (HFD-fed MUP-uPA mice; [7]): reduced
mTORC1/p70S6K activation (HFD-fed MUP-uPA mice; [7]): had no effect
expression of inflammatory cytokines and markers as well as fibrosis-related genes (HFD-fed MUP-uPA mice; qRT-PCR, HFD-fed MUP-uPA mice, 10 μg/g i.p. on alternate days for 6 weeks): reduced

tunicamycin
Casp2 protein and RNA in liver (Casp2): induced

z-VDVAD-fmk
ATM (adipose tissue macrophage) accumulation / infiltration into epidydimal fat (HFD-fed MUP-uPA mice; [3]): reduced
UCP1 expression in BAT (HFD-fed MUP-uPA mice; [3]): elevating
inflammatory infiltration in livers (HFD-fed MUP-uPA mice; [3]): decreased
liver TG (HFD-fed MUP-uPA mice; [3]): significantly prevented
liver fibrosis (HFD-fed MUP-uPA mice; [3]): dramatically reduced
MDB (Mallory-Denk body) formation (HFD-fed MUP-uPA mice; [4]): decreased
circulating TG (HFD-fed MUP-uPA mice; [3]): decreased
circulating cholesterol (HFD-fed MUP-uPA mice; [3]): decreased

B1: Casp2-HA (mouse Casp2 with a C terminal HA epitope) (protein)
chain: MAAPSGRSQSSLHRKGLMAADRRSRILAVCGMHPDHQETLKKNRVVLAKQLLLSELLEHLLEKDIITLEMRELIQAKGGSFSQNVELLNLLPKRGPQAFDAFCEALRETRQGHLEDLLLTTLSDIQHVLPPLSCDYDTSLPFSVCESCPPHKQLRLSTDATEHSLDNGDGPPCLLVKPCTPEFYQAHYQLAYRLQSQPRGLALVLSNVHFTGEKDLEFRSGGDVDHTTLVTLFKLLGYNVHVLHDQTAQEMQEKLQNFAQLPAHRVTDSCVVALLSHGVEGGIYGVDGKLLQLQEVFRLFDNANCPSLQNKPKMFFIQACRGDETDRGVDQQDGKNHTQSPGCEESDAGKEELMKMRLPTRSDMICGYACLKGNAAMRNTKRGSWYIEALTQVFSERACDMHVADMLVKVNALIKEREGYAPGTEFHRCKEMSEYCSTLCQQLYLFPGYPPT
SREBP activation/cleavage (immunoblot) [2]: co-transfection of Casp2 with SREBP2 into either SCAP-deficient (293^ΔSCAP) or WT HEK293 cells did not result in SREBP1/2 activation/cleavage, unless an SP expression vector was also included
